Assay results: US20130184222A1, “[…] ACTIVE COMPOSITIONS AND THEIR METHODS OF USE” (AGIOS PHARMACEUTICALS, INC, priority 2010, published 2013)

Assays:
IDH1 R132H = IDH1 R132H (Homo sapiens, UniProt O75874, R132H); assay: In vitro assay for IDH1 R132H inhibitors (NADPH/aKG, resazurin detection); type: biochemical; details: Table 4B; 0.2 μg/ml IDH1 R132H, 50 minutes at room temperature; read-out: IC50, IDH1 R132H Inhibition
Outline: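 Reaction ran 50 min at room temperature in Tris pH 7.5 buffer with 150 mM NaCl, 10 mM MgCl2 and 0.03% BSA. Mix concentrations were 0.2 μg/ml mutant enzyme, 8 uM NADPH and 2 mM aKG. Detection added 30 μM resazurin, with resorufin fluorescence (Ex544/Em590) measured 5 min later.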

HT1080 cells = assay: Cellular assay: inhibition of 2-HG production in HT1080 cells (LC-MS, 48 hours); type: cell-based; details: Homo sapiens, HT-1080, 2-HG in media by LC-MS
Outline: (§1)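 HT1080 or U87MG cells (5000/well, DMEM + 10% FBS) seeded overnight, then exposed to compound (0.2% DMSO final) for 48 h; medium 2-HG measured by LC-MS. Viability read by CellTiter-Glo luminescence at 72 h.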

U87MG cells = assay: Cellular assay: inhibition of 2-HG production in U87MG cells (LC-MS, 48 hours); type: cell-based; details: Homo sapiens, U-87 MG, 2-HG in media by LC-MS
Outline: as §1

Chain of IDH1 R132H (O75874 whole entry R132H): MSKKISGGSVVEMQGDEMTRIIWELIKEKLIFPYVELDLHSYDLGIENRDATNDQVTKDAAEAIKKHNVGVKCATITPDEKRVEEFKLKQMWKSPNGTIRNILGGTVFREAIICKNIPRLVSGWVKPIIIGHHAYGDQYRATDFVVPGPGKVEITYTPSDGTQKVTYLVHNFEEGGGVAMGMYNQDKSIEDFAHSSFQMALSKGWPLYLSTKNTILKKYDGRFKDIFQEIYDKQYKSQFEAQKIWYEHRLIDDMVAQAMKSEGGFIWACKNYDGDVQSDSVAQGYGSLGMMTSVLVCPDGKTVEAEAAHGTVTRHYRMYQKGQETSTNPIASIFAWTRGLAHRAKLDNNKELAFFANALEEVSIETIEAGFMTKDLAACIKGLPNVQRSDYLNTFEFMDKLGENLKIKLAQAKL

Row | SMILES | IC50 (IDH1 R132H) [nM] | IC50 (HT1080 cells) [nM] | IC50 (U87MG cells) [nM]
1 | COC(=O)N1CCCC1C(=O)N(c1cccc(F)c1)C(C(=O)NC1CCCCC1)c1ccccc1C (stereo not drawn) [Compound 306] | ≤ 100 | 250 to 1000 | ≤ 250
2 | Cc1ccccc1C(C(=O)NC1CCCCC1)N(Cc1cccs1)C(=O)Cn1ccnc1 (stereo not drawn) [Compound 204, N-cyclohexyl-2-[(2-imidazol-1-yl-acetyl)-thiophen-2-ylmethyl-amino]-2-o-tolyl-acetamide] | 100 to 1000 | 1000 to 5000 | 250 to 1000
3 | Cc1ccccc1C(C(=O)NC1CC2CC2C1)N(C(=O)Cn1ccc2ncccc21)c1cccc(F)c1 (stereo not drawn) [Compound 325] | 100 to 1000 | 1000 to 5000 | 1000 to 5000
4 | Cc1ccccc1[C@@H](C(=O)NC1CCCCC1)N(C(=O)[C@H]1CCCCN1C(=O)OC(C)(C)C)c1cccc(F)c1 [Compound 332] | 100 to 1000 | 250 to 1000 | 1000 to 5000
5 | CN(C)C(=O)Oc1ccc(CC(=O)N(c2cccc(F)c2)C(C(=O)NC2CCCCC2)c2ccccc2F)cc1 (stereo not drawn) [Compound 313] | ≤ 100 | ≤ 250 | ≤ 250
6 | Cc1ccccc1C(C(=O)NC1CCCCC1)N(C(=O)CNC1Cc2cccnc2C1)c1cccc(F)c1 (stereo not drawn) [Compound 318] | 100 to 1000 | 250 to 1000 | 250 to 1000
7 | Cc1ccccc1C(C(=O)NC1CCCCC1)N(C(=O)CN1CCCc2ccccc21)c1ccn(C)n1 (stereo not drawn) [Compound 245] | 100 to 1000 | 250 to 1000 | 1000 to 5000
8 | COc1cccc(NCC(=O)N(c2cccc(F)c2)C(C(=O)NC2CCCCC2)c2ccccc2C)c1 (stereo not drawn) [Compound 247] | ≤ 100 | ≤ 250 | 250 to 1000
9 | Cc1ccccc1C(C(=O)NC1CCCCC1)N(C(=O)CN1CCC(F)(F)CC1)c1cccc(F)c1 (stereo not drawn) [Compound 177] | 100 to 1000 | 250 to 1000 | 1000 to 5000
10 | Cc1ccccc1C(C(=O)NC1CCCCC1)N(C(=O)COc1cc(C(F)(F)F)ccn1)c1cccc(F)c1 (stereo not drawn) [Compound 303] | 100 to 1000 | ≤ 250 | 250 to 1000
11 | Cc1ccccc1C(C(=O)NC1CCCCC1)N(Cc1cccs1)C(=O)Cn1cnc2ccccc21 (stereo not drawn) [Compound 167] | 100 to 1000 | 250 to 1000 | 250 to 1000
12 | Cc1ccccc1C(C(=O)NC1CCCCC1)N(Cc1cccs1)C(=O)Cn1c(C)nc2ccccc21 (stereo not drawn) [Compound 175] | 100 to 1000 | 250 to 1000 | 1000 to 5000
13 | Cc1ccccc1C(C(=O)NC1CCCCC1)N(Cc1cccs1)C(=O)Cn1ccnc1C (stereo not drawn) [Compound 176] | 100 to 1000 | 1000 to 5000 | ≤ 250
14 | Cc1ccccc1C(C(=O)NC1CCCCC1)N(C(=O)CNc1ccc(S(C)(=O)=O)cc1)c1cccc(F)c1 (stereo not drawn) [Compound 258] | 100 to 1000 | 250 to 1000 | 250 to 1000
15 | Cc1ccccc1C(C(=O)NC1CCCCC1)N(C(=O)Cn1cc[nH]c1=O)c1cccc(F)c1 (stereo not drawn) [Compound 319] | 100 to 1000 | 1000 to 5000 | 1000 to 5000
16 | Cc1ccccc1C(C(=O)NC1CCCCC1)N(C(=O)Cn1ccnc1N)c1cccc(F)c1 (stereo not drawn) [Compound 326] | 100 to 1000 | 250 to 1000 | ≤ 250
17 | O=C(NC1CCCCC1)C(c1ccccc1F)N(C(=O)Cn1ccc2ncccc21)c1cccc(F)c1 (stereo not drawn) [Compound 324] | 100 to 1000 | 1000 to 5000 | 250 to 1000
18 | Cc1ccccc1C(C(=O)NC1CCCCC1)N(C(=O)Cn1ccnc1C)c1cccc(F)c1 (stereo not drawn) [Compound 165] | ≤ 100 | 250 to 1000 | ≤ 250

Row | SMILES | IC50 (IDH1 R132H) [nM] | IC50 (HT1080 cells) [nM] | IC50 (U87MG cells) [nM]
19 | Cc1ccccc1C(C(=O)NC1CCCCC1)N(C(=O)CNc1ccc(F)cc1)c1cccc(F)c1 (stereo not drawn) [Compound 201] | ≤ 100 | 1000 to 5000 | 1000 to 5000
20 | Cc1ccccc1C(C(=O)NC1CCCCC1)N(C(=O)Cc1cn(C)c2ccccc12)c1cccc(F)c1 (stereo not drawn) [Compound 243] | 100 to 1000 | 250 to 1000 | 250 to 1000
21 | Cc1ccccc1C(C(=O)NC1CCCCC1)N(C(=O)Cn1c(C)nc2ccccc21)c1cccc(F)c1 (stereo not drawn) [Compound 173] | ≤ 100 | ≤ 250 | ≤ 250
22 | Cc1ccccc1C(C(=O)NC1CCCCC1)N(C(=O)Cc1ccc(OC(=O)N2CCOCC2)cc1)c1cccc(F)c1 (stereo not drawn) [Compound 264] | 100 to 1000 | 250 to 1000 | 250 to 1000
23 | COc1ccc(NCC(=O)N(c2cccc(F)c2)C(C(=O)NC2CCCCC2)c2ccccc2C)cc1 (stereo not drawn) [Compound 210] | ≤ 100 | 1000 to 5000 | 1000 to 5000
24 | O=C(NC1CCCCC1)C(c1ccccc1Cl)N(C(=O)Cc1cscn1)c1cccc(F)c1 (stereo not drawn) [Compound 307] | ≤ 100 | 250 to 1000 | 250 to 1000
25 | Cc1ccccc1C(C(=O)NC1CCCCC1)N(C(=O)COc1ccncc1)c1cccc(F)c1 (stereo not drawn) [Compound 199] | 100 to 1000 | 1000 to 5000 | 1000 to 5000
26 | Cc1ccccc1C(C(=O)NC1CCCCC1)N(C(=O)CNc1ccc(C(F)(F)F)nc1)c1cccc(F)c1 (stereo not drawn) [Compound 279] | 100 to 1000 | 1000 to 5000 | > 5000
27 | Cc1ccccc1C(C(=O)NC1CCC(F)(F)CC1)N(C(=O)CNc1cccnc1F)c1cccc(F)c1 (stereo not drawn) [Compound 378] | ≤ 100 | 250 to 1000 | 250 to 1000
28 | Cc1ccccc1C(C(=O)NC1CCCCC1)N(C(=O)Cc1c[nH]c2cccnc12)c1cccc(F)c1 (stereo not drawn) [Compound 275] | ≤ 100 | ≤ 250 | 250 to 1000
29 | COc1cccc(CNCC(=O)N(c2cccc(F)c2)C(C(=O)NC2CCCCC2)c2ccccc2C)c1 (stereo not drawn) [Compound 221] | 100 to 1000 | 1000 to 5000 | 1000 to 5000
30 | Cc1ccccc1[C@@H](C(=O)NC1CCCCC1)N(C(=O)[C@H]1CCCN1S(C)(=O)=O)c1cccc(F)c1 [Compound 363] | 100 to 1000 | 1000 to 5000 | 250 to 1000
31 | CC(=O)Oc1ccc(CC(=O)N(c2cccc(F)c2)C(C(=O)NC2CCCCC2)c2ccccc2C)cc1 (stereo not drawn) [Compound 212] | ≤ 100 | ≤ 250 | ≤ 250
32 | Cc1ccccc1C(C(=O)NC1CCCCC1)N(C(=O)CNc1ncccc1F)c1cccc(F)c1 (stereo not drawn) [Compound 301] | ≤ 100 | ≤ 250 | ≤ 250
33 | Cc1ccn(CC(=O)N(c2cccc(F)c2)C(C(=O)NC2CCCCC2)c2ccccc2C)n1 (stereo not drawn) [Compound 298] | 100 to 1000 | 250 to 1000 | 1000 to 5000
34 | Cc1ccccc1C(C(=O)NC1CCCCC1)N(C(=O)CN1CCN(C(=O)OC(C)C)CC1)c1cccc(F)c1 (stereo not drawn) [Compound 250] | 100 to 1000 | 1000 to 5000 | 1000 to 5000
35 | Cc1ccccc1[C@@H](C(=O)NC1CCCCC1)N(C(=O)[C@H]1CCCCN1S(C)(=O)=O)c1cccc(F)c1 [Compound 346] | 100 to 1000 | 250 to 1000 | 250 to 1000
